The results in this text go back to PubChem BioAssay AID248 (DTP/NCI, 2004).

The subject of the experiment is L1210 leukemia ip in BDF1 mice, survival T/C. The experiment can be described thus: NCI In Vivo Anticancer Drug Screen. Data for tumor model L1210 Leukemia (intraperitoneal) in B6D2F1 (BDF1) mice. As to conditions: endpoint: mean survival time, higher = longer survival. The method in brief: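 Ratio derived from survival: compound-dosed mice over vehicle-dosed mice, all bearing a transplantable tumor.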

Setting [1] is: dose: 100.0 mg/kg/injection, schedule: Q01DX009 (ip), vehicle: saline.
[2] abbreviates: dose: 100.0 mg/kg/injection, schedule: Q04DX003 (ip), vehicle: saline.
Setting [3] is: dose: 200.0 mg/kg/injection, schedule: Q04DX003 (ip), vehicle: saline.
Setting [4] is: dose: 400.0 mg/kg/injection, schedule: Q04DX003 (ip), vehicle: saline.
The mark [5] stands for this setting: dose: 100.0 mg/kg/injection, schedule: Q01DX009 (ip), vehicle: saline with Tween-80.
Where [6] appears, read: dose: 25.0 mg/kg/injection, schedule: Q01DX009 (ip), vehicle: Klucel (hydroxypropylcellulose) (HPC).
The mark [7] stands for this setting: dose: 50.0 mg/kg/injection, schedule: Q01DX009 (ip), vehicle: Klucel (hydroxypropylcellulose) (HPC).

Structures are written as SMILES. Inconclusive results and toxic doses are left out.

Turning to `O=[N+]([O-])c1cccc(/C=C/C=C/c2ccc(Cl)c(Cl)c2)c1`, the T/C (dose: 100.0 mg/kg/injection, schedule: Q04DX002 (ip), vehicle: Klucel (hydroxypropylcellulose) (HPC)) was 100 % of control; the T/C (dose: 200.0 mg/kg/injection, schedule: Q04DX002 (ip), vehicle: Klucel (hydroxypropylcellulose) (HPC)) is 93 % of control; the T/C (dose: 400.0 mg/kg/injection, schedule: Q04DX002 (ip), vehicle: Klucel (hydroxypropylcellulose) (HPC)) is 96 % of control.

In the case of `C=CCc1ccc(OC(C)=O)c(OC)c1`, the T/C runs as follows: (dose: 100.0 mg/kg/injection, schedule: Q01DX001 (ip), vehicle: saline) 96 % of control; (dose: 200.0 mg/kg/injection, schedule: Q01DX001 (ip), vehicle: saline) 98 % of control; (dose: 400.0 mg/kg/injection, schedule: Q01DX001 (ip), vehicle: saline) 108 % of control.

Take `CCC[CH2][Sn]([CH2]CCC)([CH2]CCC)[O]C(=O)CC[S][Sn]([CH2]CCC)([CH2]CCC)[CH2]CCC`: the T/C is 97 % of control (dose: 0.5 mg/kg/injection, schedule: Q01DX015 (ip), vehicle: saline); 100 % of control (dose: 1.0 mg/kg/injection, schedule: Q01DX015 (ip), vehicle: saline); 95 % of control (dose: 2.0 mg/kg/injection, schedule: Q01DX015 (ip), vehicle: saline); 103 % of control (dose: 2.5 mg/kg/injection, schedule: Q01DX001 (ip), vehicle: saline); 87 % of control (dose: 4.0 mg/kg/injection, schedule: Q01DX015 (ip), vehicle: saline); 100 % of control (dose: 5.0 mg/kg/injection, schedule: Q01DX001 (ip), vehicle: saline). The T/C runs as follows: (dose: 10.0 mg/kg/injection, schedule: Q01DX001 (ip), vehicle: saline) 105 % of control; (dose: 20.0 mg/kg/injection, schedule: Q01DX001 (ip), vehicle: saline) 97 % of control.

In the case of `CN(C)c1ccc(C=Nc2ccccc2)cc1`, the T/C was 98 % of control (dose: 100.0 mg/kg/injection, schedule: Q01DX001 (ip), vehicle: other); 102 % of control (dose: 200.0 mg/kg/injection, schedule: Q01DX001 (ip), vehicle: other); 108 % of control (dose: 400.0 mg/kg/injection, schedule: Q01DX001 (ip), vehicle: other).

In the case of `CCCCCCCc1cc(=O)n(-c2ccc([N+](=O)[O-])cc2)n1C`, the T/C is, setting by setting: (dose: 100.0 mg/kg/injection, schedule: Q04DX003 (ip), vehicle: Klucel (hydroxypropylcellulose) (HPC)) 92 % of control; (dose: 200.0 mg/kg/injection, schedule: Q04DX003 (ip), vehicle: Klucel (hydroxypropylcellulose) (HPC)) 91 % of control; (dose: 400.0 mg/kg/injection, schedule: Q04DX003 (ip), vehicle: Klucel (hydroxypropylcellulose) (HPC)) 94 % of control.

On to `C/C=C(\C)C(=O)Nc1ccc(Cl)c(Cl)c1`, for which the T/C was 93 % of control (dose: 222.0 mg/kg/injection, schedule: Q01DX Z (ip), vehicle: methylcellulose (MC)); 90 % of control (dose: 333.0 mg/kg/injection, schedule: Q01DX Z (ip), vehicle: methylcellulose (MC)); 98 % of control (dose: 500.0 mg/kg/injection, schedule: Q01DX Z (ip), vehicle: methylcellulose (MC)).

Regarding `CC(=O)Nc1ccc2c3c(ccc([N+](=O)[O-])c13)CC2`, the T/C was 90 % of control under setting [1]; 108 % of control under setting [2]; 93 % of control (dose: 200.0 mg/kg/injection, schedule: Q01DX009 (ip), vehicle: saline); 110 % of control under setting [3]; 108 % of control (dose: 400.0 mg/kg/injection, schedule: Q01DX009 (ip), vehicle: saline); 110 % of control under setting [4].

`CCOC(=O)c1cnn2c(SC)ncnc12`: the T/C runs as follows: (dose: 25.0 mg/kg/injection, schedule: Q04DX003 (ip), vehicle: saline with Tween-80) 102 % of control; (dose: 50.0 mg/kg/injection, schedule: Q01DX009 (ip), vehicle: saline with Tween-80) 102 % of control; (dose: 50.0 mg/kg/injection, schedule: Q04DX003 (ip), vehicle: saline with Tween-80) 104 % of control; under setting [5], 91 % of control; (dose: 100.0 mg/kg/injection, schedule: Q04DX003 (ip), vehicle: saline with Tween-80) 107 % of control.

Consider `C=C1CC[N+]2(CCCC)CCCC12` (stereo unspecified), for which the T/C was 103 % of control (dose: 12.5 mg/kg/injection, schedule: Q01DX009 (ip), vehicle: Klucel (hydroxypropylcellulose) (HPC)); 97 % of control under setting [6]; 95 % of control under setting [7].

As to `CCOC(=O)Nc1cc(NCC(O)CN(C)C)c([N+](=O)[O-])c(N)n1` (stereo unspecified), the T/C was 103 % of control (dose: 100.0 mg/kg/injection, schedule: Q01DX001 (ip), vehicle: saline with Tween-80); 94 % of control (dose: 200.0 mg/kg/injection, schedule: Q01DX001 (ip), vehicle: saline with Tween-80); 101 % of control (dose: 400.0 mg/kg/injection, schedule: Q01DX001 (ip), vehicle: saline with Tween-80).

As for `CC(=O)Nc1cc(C)c(Cl)cc1Cl`, the T/C reads like this: (dose: 31.25 mg/kg/injection, schedule: Q01DX009 (ip), vehicle: saline) 103 % of control; (dose: 62.5 mg/kg/injection, schedule: Q01DX009 (ip), vehicle: saline) 103 % of control; under setting [2], 100 % of control; (dose: 125.0 mg/kg/injection, schedule: Q01DX009 (ip), vehicle: saline) 102 % of control; under setting [3], 105 % of control; under setting [4], 101 % of control.

Consider `CSC1SC(C)CC(C)S1` (stereo unspecified), for which the T/C is, setting by setting: (dose: 12.5 mg/kg/injection, schedule: Q04DX002 (ip), vehicle: Klucel (hydroxypropylcellulose) (HPC)) 95 % of control; (dose: 25.0 mg/kg/injection, schedule: Q04DX002 (ip), vehicle: Klucel (hydroxypropylcellulose) (HPC)) 92 % of control; (dose: 50.0 mg/kg/injection, schedule: Q04DX002 (ip), vehicle: Klucel (hydroxypropylcellulose) (HPC)) 98 % of control.

As to `CC/C(=C(\CC)c1ccc(OCCN(CC)CC)cc1)c1ccc(OCCN(CC)CC)cc1`, the T/C (dose: 5.0 mg/kg/injection, schedule: Q01DX001 (ip), vehicle: carboxymethylcellulose (CMC)) was 94 % of control; the T/C (dose: 10.0 mg/kg/injection, schedule: Q01DX001 (ip), vehicle: carboxymethylcellulose (CMC)) was 96 % of control; the T/C (dose: 40.0 mg/kg/injection, schedule: Q01DX001 (ip), vehicle: carboxymethylcellulose (CMC)) is 94 % of control; the T/C (dose: 100.0 mg/kg/injection, schedule: Q01DX001 (ip), vehicle: carboxymethylcellulose (CMC)) is 106 % of control.

Take `O=[N+]([O-])c1cccn2cnnc12`: for the setting “dose: 100.0 mg/kg/injection, schedule: Q01DX001 (ip), vehicle: acetone”, the T/C is 92 % of control.

With `CN(C)N=Nc1ccc2[nH]ncc2c1`, the T/C reads like this: (dose: 14.5 mg/kg/injection, schedule: Q01DX009 (ip), vehicle: Klucel (hydroxypropylcellulose) (HPC)) 123 % of control; (dose: 16.5 mg/kg/injection, schedule: Q04DX003 (ip), vehicle: Klucel (hydroxypropylcellulose) (HPC)) 100 % of control; under setting [6], 114 % of control; (dose: 25.0 mg/kg/injection, schedule: Q04DX003 (ip), vehicle: Klucel (hydroxypropylcellulose) (HPC)) 107 % of control; (dose: 33.0 mg/kg/injection, schedule: Q01DX009 (ip), vehicle: Klucel (hydroxypropylcellulose) (HPC)) 152 % of control; (dose: 37.5 mg/kg/injection, schedule: Q04DX003 (ip), vehicle: Klucel (hydroxypropylcellulose) (HPC)) 117 % of control. For the same compound, the T/C reads like this: under setting [7], 119 % of control; (dose: 100.0 mg/kg/injection, schedule: Q01DX001 (ip), vehicle: Klucel (hydroxypropylcellulose) (HPC)) 111 % of control.

With `CC1(C)OC2COC(c3[nH]nc4c(=O)[nH]c(=O)[nH]c34)C2O1` (stereo unspecified), the T/C is, setting by setting: (dose: 25.0 mg/kg/injection, schedule: Q01DX009 (ip), vehicle: saline) 96 % of control; (dose: 100.0 mg/kg/injection, schedule: Q01DX005 (ip), vehicle: saline) 101 % of control; under setting [1], 188 % of control.

Take `CCCCOC(=O)c1ccc(NC(=O)NCCC)cc1`: the T/C under setting [5] is 90 % of control; the T/C (dose: 200.0 mg/kg/injection, schedule: Q01DX009 (ip), vehicle: saline with Tween-80) is 88 % of control; the T/C (dose: 400.0 mg/kg/injection, schedule: Q01DX009 (ip), vehicle: saline with Tween-80) was 95 % of control.

Regarding `O=C(Nc1ccc(F)c([N+](=O)[O-])c1)Nc1cccc2c(O)cccc12`, the T/C by setting is: (dose: 100.0 mg/kg/injection, schedule: Q01DX009 (ip), vehicle: Klucel (hydroxypropylcellulose) (HPC)) 101 % of control; (dose: 200.0 mg/kg/injection, schedule: Q01DX009 (ip), vehicle: Klucel (hydroxypropylcellulose) (HPC)) 103 % of control; (dose: 400.0 mg/kg/injection, schedule: Q01DX009 (ip), vehicle: Klucel (hydroxypropylcellulose) (HPC)) 97 % of control.
